Assay results from publication PMC6009956, “Design, synthesis and biological activity of N^4-phenylsubstituted-7H-pyrrolo[2,3-d]pyrimidin-4-amines as dual inhibitors of aurora kinase A and epidermal growth factor receptor kinase” (Journal of Enzyme Inhibition and Medicinal Chemistry, 2017).
Read-outs that look alike come from different tables or passages of the source.

Assays:
EGFR = EGFR (Homo sapiens, UniProt P00533); test: ADP-Glo kinase assay, EGFR; type: biochemical; design: purchased BPS Bioscience (assay run externally by the vendor)
aurora A kinase (AURKA) = biological target: T1, aurora A kinase (AURKA) (Homo sapiens, UniProt O14965); test: ADP-Glo kinase assay, Aurora A; type: biochemical
T1 construct: purchased BPS Bioscience (assay run externally by the vendor)
T1 sequence (O14965 1-403): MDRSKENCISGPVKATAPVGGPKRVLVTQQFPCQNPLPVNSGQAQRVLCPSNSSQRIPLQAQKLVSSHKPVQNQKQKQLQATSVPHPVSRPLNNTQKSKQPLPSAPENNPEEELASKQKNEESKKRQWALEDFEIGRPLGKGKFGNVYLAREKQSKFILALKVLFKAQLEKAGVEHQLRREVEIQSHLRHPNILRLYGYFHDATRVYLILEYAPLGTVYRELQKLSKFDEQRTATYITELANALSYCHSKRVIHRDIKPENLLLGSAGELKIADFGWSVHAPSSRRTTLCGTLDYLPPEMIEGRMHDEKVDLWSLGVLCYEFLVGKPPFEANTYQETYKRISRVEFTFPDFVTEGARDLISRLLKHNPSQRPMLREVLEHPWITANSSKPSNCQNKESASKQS

Chain of EGFR (P00533 25-1210): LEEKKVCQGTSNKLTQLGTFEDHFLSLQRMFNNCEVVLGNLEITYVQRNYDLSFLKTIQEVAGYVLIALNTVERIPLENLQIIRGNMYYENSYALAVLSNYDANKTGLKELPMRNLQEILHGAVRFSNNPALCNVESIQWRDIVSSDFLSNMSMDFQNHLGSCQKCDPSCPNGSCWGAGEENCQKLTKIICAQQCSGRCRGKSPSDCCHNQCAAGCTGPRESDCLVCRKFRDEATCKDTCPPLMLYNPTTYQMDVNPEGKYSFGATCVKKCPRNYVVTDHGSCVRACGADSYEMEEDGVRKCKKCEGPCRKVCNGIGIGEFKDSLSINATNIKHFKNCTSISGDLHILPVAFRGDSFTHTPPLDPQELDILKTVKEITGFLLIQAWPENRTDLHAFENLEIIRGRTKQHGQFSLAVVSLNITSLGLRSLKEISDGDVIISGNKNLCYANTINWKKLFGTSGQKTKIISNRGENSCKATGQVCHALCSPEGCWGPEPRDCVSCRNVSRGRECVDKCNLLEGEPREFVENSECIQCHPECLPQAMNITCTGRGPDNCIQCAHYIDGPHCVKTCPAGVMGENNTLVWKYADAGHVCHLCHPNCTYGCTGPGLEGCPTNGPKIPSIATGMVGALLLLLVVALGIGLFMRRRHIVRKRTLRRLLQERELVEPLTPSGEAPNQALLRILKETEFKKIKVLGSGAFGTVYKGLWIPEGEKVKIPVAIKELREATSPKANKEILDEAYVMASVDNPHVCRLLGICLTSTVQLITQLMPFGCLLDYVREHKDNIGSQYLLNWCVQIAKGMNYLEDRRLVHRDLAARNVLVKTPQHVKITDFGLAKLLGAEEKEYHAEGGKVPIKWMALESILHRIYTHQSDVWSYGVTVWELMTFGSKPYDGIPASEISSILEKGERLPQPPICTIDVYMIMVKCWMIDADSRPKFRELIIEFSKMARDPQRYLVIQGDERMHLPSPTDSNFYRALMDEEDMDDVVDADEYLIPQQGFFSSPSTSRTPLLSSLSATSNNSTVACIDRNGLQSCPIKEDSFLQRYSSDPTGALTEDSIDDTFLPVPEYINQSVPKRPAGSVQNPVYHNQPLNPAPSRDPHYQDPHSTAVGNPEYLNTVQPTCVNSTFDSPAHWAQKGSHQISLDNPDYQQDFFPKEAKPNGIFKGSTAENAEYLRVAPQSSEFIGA

In the case of Cc1ccc(Nc2ncnc3[nH]ccc23)cc1 [Compound 9, N^4-(4-methylphenyl)-7H-pyrrolo[2,3-d]pyrimidin-4-amine], the IC50 (EGFR; 10 µM ATP, triplicate, read-out: EGFR IC50 ± SD) is reported as 0.667 ± 0.142 µM, the IC50 (EGFR; 10 µM ATP/0.2 mg/ml Poly-Glu-Tyr, read-out: EGFR IC50 (dose-response curve, supplement)) is reported as 0.693 µM and the “EGFR % Activity Set1” value (EGFR; Log[nM] 0) is reported as 103%. For the same compound, the “EGFR % Activity Set2” value (EGFR; Log[nM] 0) was 98%, the “EGFR % Activity Set3” value (EGFR; Log[nM] 0) was 105% and the “EGFR % Activity Set1” value (EGFR; Log[nM] 1.0) was 112%. For the same compound, the “EGFR % Activity Set2” value (EGFR; Log[nM] 1.0) was 109%, the “EGFR % Activity Set3” value (EGFR; Log[nM] 1.0) was 103% and the “EGFR % Activity Set1” value (EGFR; Log[nM] 1.5) was 113%. For the same compound, the “EGFR % Activity Set2” value (EGFR; Log[nM] 1.5) was 108%, the “EGFR % Activity Set3” value (EGFR; Log[nM] 1.5) was 95% and the “EGFR % Activity Set1” value (EGFR; Log[nM] 2.0) was 95%. For the same compound, the “EGFR % Activity Set2” value (EGFR; Log[nM] 2.0) was 88%, the “EGFR % Activity Set3” value (EGFR; Log[nM] 2.0) was 81% and the “EGFR % Activity Set1” value (EGFR; Log[nM] 2.5) was 74%. The “EGFR % Activity Set2” value (EGFR; Log[nM] 2.5) was 63%, the “EGFR % Activity Set3” value (EGFR; Log[nM] 2.5) was 67% and the “EGFR % Activity Set1” value (EGFR; Log[nM] 3.0) was 36%. For the same compound, the “EGFR % Activity Set2” value (EGFR; Log[nM] 3.0) was 35%, the “EGFR % Activity Set3” value (EGFR; Log[nM] 3.0) was 43% and the “EGFR % Activity Set1” value (EGFR; Log[nM] 3.5) was 18%. For the same compound, the “EGFR % Activity Set2” value (EGFR; Log[nM] 3.5) was 16%, the “EGFR % Activity Set3” value (EGFR; Log[nM] 3.5) was 23% and the “EGFR % Activity Set1” value (EGFR; Log[nM] 4.0) was 8%. The “EGFR % Activity Set2” value (EGFR; Log[nM] 4.0) was 7%, the “EGFR % Activity Set3” value (EGFR; Log[nM] 4.0) was 10% and the “EGFR % Activity Set1” value (EGFR; Log[nM] 4.5) was 3%. For the same compound, the “EGFR % Activity Set2” value (EGFR; Log[nM] 4.5) was 4%, the “EGFR % Activity Set3” value (EGFR; Log[nM] 4.5) was 3% and the “EGFR % Activity Set1” value (EGFR; Log[nM] 5.0) was 1%. For the same compound, the “EGFR % Activity Set2” value (EGFR; Log[nM] 5.0) was 1%, the “EGFR % Activity Set3” value (EGFR; Log[nM] 5.0) was 2% and the IC50 (aurora A kinase (AURKA); 10 µM ATP, triplicate, read-out: AURKA IC50 ± SD) was 5.45 ± 0.36 µM. For the same compound, the IC50 (aurora A kinase (AURKA); 10 µM ATP/0.2 mg/ml Kemptide, read-out: Aurora A IC50 (dose-response curve, supplement)) was 5.4 µM, the “Aurora A % Activity Set1” value (aurora A kinase (AURKA); Log[nM] 0) was 101% and the “Aurora A % Activity Set2” value (aurora A kinase (AURKA); Log[nM] 0) was 103%. For the same compound, the “Aurora A % Activity Set3” value (aurora A kinase (AURKA); Log[nM] 0) was 105%, the “Aurora A % Activity Set1” value (aurora A kinase (AURKA); Log[nM] 1.0) was 114% and the “Aurora A % Activity Set2” value (aurora A kinase (AURKA); Log[nM] 1.0) was 103%. For the same compound, the “Aurora A % Activity Set3” value (aurora A kinase (AURKA); Log[nM] 1.0) was 107%, the “Aurora A % Activity Set1” value (aurora A kinase (AURKA); Log[nM] 1.5) was 111% and the “Aurora A % Activity Set2” value (aurora A kinase (AURKA); Log[nM] 1.5) was 103%. The “Aurora A % Activity Set3” value (aurora A kinase (AURKA); Log[nM] 1.5) was 109%, the “Aurora A % Activity Set1” value (aurora A kinase (AURKA); Log[nM] 2.0) was 102% and the “Aurora A % Activity Set2” value (aurora A kinase (AURKA); Log[nM] 2.0) was 107%. For the same compound, the “Aurora A % Activity Set3” value (aurora A kinase (AURKA); Log[nM] 2.0) was 114%, the “Aurora A % Activity Set1” value (aurora A kinase (AURKA); Log[nM] 2.5) was 99% and the “Aurora A % Activity Set2” value (aurora A kinase (AURKA); Log[nM] 2.5) was 102%. The “Aurora A % Activity Set3” value (aurora A kinase (AURKA); Log[nM] 2.5) was 110%, the “Aurora A % Activity Set1” value (aurora A kinase (AURKA); Log[nM] 3.0) was 87% and the “Aurora A % Activity Set2” value (aurora A kinase (AURKA); Log[nM] 3.0) was 90%. The “Aurora A % Activity Set3” value (aurora A kinase (AURKA); Log[nM] 3.0) was 91%, the “Aurora A % Activity Set1” value (aurora A kinase (AURKA); Log[nM] 3.5) was 63% and the “Aurora A % Activity Set2” value (aurora A kinase (AURKA); Log[nM] 3.5) was 66%. For the same compound, the “Aurora A % Activity Set3” value (aurora A kinase (AURKA); Log[nM] 3.5) was 61%, the “Aurora A % Activity Set1” value (aurora A kinase (AURKA); Log[nM] 4.0) was 32% and the “Aurora A % Activity Set2” value (aurora A kinase (AURKA); Log[nM] 4.0) was 29%. For the same compound, the “Aurora A % Activity Set3” value (aurora A kinase (AURKA); Log[nM] 4.0) was 30%, the “Aurora A % Activity Set1” value (aurora A kinase (AURKA); Log[nM] 4.5) was 16% and the “Aurora A % Activity Set2” value (aurora A kinase (AURKA); Log[nM] 4.5) was 15%. The “Aurora A % Activity Set3” value (aurora A kinase (AURKA); Log[nM] 4.5) was 13%, the “Aurora A % Activity Set1” value (aurora A kinase (AURKA); Log[nM] 5.0) was 9% and the “Aurora A % Activity Set2” value (aurora A kinase (AURKA); Log[nM] 5.0) was 9%. For the same compound, the “Aurora A % Activity Set3” value (aurora A kinase (AURKA); Log[nM] 5.0) was 9%.
